Assay results: publication PMC11353420, “Anti-Inflammatory, Cytotoxic, and Genotoxic Effects of Soybean Oligopeptides Conjugated with Mannose” (Foods, 2024)

Experiments:
iNOS = iNOS protein level by immunoblotting in LPS-treated RAW 264.7; assay type: cell-based, murine; details: 100, 200, 400 µg/mL, LPS 1 µg/mL 24 h
Protocol: RAW 264.7 macrophage cells were pretreated with various concentrations of the oligopeptide and its conjugated forms (100, 200, 400 µg/mL) for an hour and then incubated with LPS (1 µg/mL) for a further 24 h (at 37 °C in a 5% CO2 humidified atmosphere). The cells were then collected to investigate the iNOS and COX-2 protein levels. Cell lysate was prepared to obtain the protein samples. The samples were subjected to 10% sodium dodecyl sulfate polyacrylamide gel electrophoresis (SDS-PAGE). The separated proteins were electrically transferred to a nitrocellulose membrane. The target proteins were probed with specific antibodies, including anti-COX-2 antibody (Cell signaling, Danvers, MA, USA), anti-iNOS antibody (Merck, Rahway, NJ, USA), and anti-β-actin antibody (Sigma, St. Louis, MO, USA). Protein detection was performed using a chemiluminescence reagent (Bio-Rad Laboratories, Watford, UK).

[1] = SRB cytotoxicity assay, HEK293; assay type: cell-based, human; details: human, HEK293 cells; HEK293, 48 h, SRB
Source text: (§1) HEK293 (Human embryonic kidney cell line), HepG2 (Human liver carcinoma cell line), LX-2 (Human hepatic stellate cell line), and 3T3-L1 (Murine preadipocyte cell line) cells were obtained from the American Type Culture Collection (ATCC), Bethesda, MD, USA.

[2] = tested on: HEK293 (Human embryonic kidney cell line); experiment: SRB cytotoxicity assay, HEK293; assay type: cell-based
Source text: as §1

[3] = SRB cytotoxicity assay, LX-2; assay type: cell-based, human; details: human, LX-2 cells; LX-2, 48 h, SRB
Source text: as §1

[4] = tested on: LX-2 (Human hepatic stellate cell line); experiment: SRB cytotoxicity assay, LX-2; assay type: cell-based
Source text: as §1

[5] = tested on: HepG2 (Human liver carcinoma cell line); experiment: SRB cytotoxicity assay, HepG2; assay type: cell-based
Source text: as §1

[6] = SRB cytotoxicity assay, HepG2; assay type: cell-based, human; details: human, HepG2 cells; HepG2, 48 h, SRB
Source text: as §1

OC[C@H]1OC(O)[C@@H](O)[C@@H](O)[C@@H]1O (stereo partly drawn) [Man, D-mannose]
effect on iNOS protein level (iNOS): did not affect | IC20 at 48 h [1]: > 1000 µg/mL | toxicity to cells ([2]; HEK293, up to 1000 µg/mL, 48 h): not toxic | IC50 ([2]; Homo sapiens, HEK293, 48 h, SRB, read-out: IC50): > 1000 µg/mL | IC20 at 48 h [3]: > 1000 µg/mL | IC50 ([4]; Homo sapiens, LX-2, 48 h, SRB, read-out: IC50): > 1000 µg/mL | toxicity to cells ([4]; LX-2, up to 1000 µg/mL, 48 h): not toxic | toxicity to cells ([5]; HepG2, up to 1000 µg/mL, 48 h): not toxic | IC50 ([5]; Homo sapiens, HepG2, 48 h, SRB, read-out: IC50): > 1000 µg/mL | IC20 at 48 h [6]: > 1000 µg/mL
